Consider 66 compounds from US8575197B2, “Pyrolinone derivative and pharmaceutical composition comprising the same” (Shionogi & Co., Ltd., priority 2008, dated 2013).

In the assay the target is human P2X3 receptor (Homo sapiens (Human), UniProt P56373). The assay can be described thus: P2X3 receptor inhibition, ATP-evoked Fluo-3 calcium fluorescence (FDSS 3000). It counts as cell-based. As to conditions: C6BU-1 cell transfected with human P2X3 receptor gene; ATP-evoked Fluo-3 fluorescence. The gist of the method: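 C6BU-1 cells stably transfected with human P2X3, loaded with 4 μM Fluo-3-AM for 1 h at 37 °C in HEPES buffer pH 7.5 with probenecid. Compound added 5 min before 40 nM ATP solution; fluorescence followed 3 min. IC50 from ratio of peak post-ATP to baseline fluorescence.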
human P2X3 receptor, sequence (P56373 whole entry): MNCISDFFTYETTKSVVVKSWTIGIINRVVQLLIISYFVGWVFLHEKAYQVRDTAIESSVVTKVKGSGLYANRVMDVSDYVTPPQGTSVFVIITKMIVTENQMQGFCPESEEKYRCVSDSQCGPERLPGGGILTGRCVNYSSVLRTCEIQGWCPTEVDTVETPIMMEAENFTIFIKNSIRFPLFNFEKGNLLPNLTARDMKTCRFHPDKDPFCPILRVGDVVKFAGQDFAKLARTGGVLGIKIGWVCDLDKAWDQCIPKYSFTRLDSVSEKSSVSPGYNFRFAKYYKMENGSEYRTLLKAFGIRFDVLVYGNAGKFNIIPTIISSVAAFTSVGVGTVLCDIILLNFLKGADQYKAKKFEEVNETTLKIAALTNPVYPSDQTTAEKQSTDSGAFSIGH

As a reminder, the IC50 is the concentration needed to halve the response being measured. For `CC(C)C(=O)C1=C(O)C(=O)N(c2ccc(-c3ccsc3)cc2)C1c1ccccc1OCC(=N)NO` (stereo not drawn) [Compound I-220], the IC50 was determined as 5 nM.
In the case of `COCOc1ccccc1C1C(C(=O)CC(C)C)=C(O)C(=O)N1c1ccc(-c2noc(C)n2)cc1` (stereo not drawn) [Compound I-316], the IC50 is 130 nM.
For `COCc1ccccc1C1C(C(=O)C(C)(C)C)=C(O)C(=O)N1c1ccc(-c2noc(C)n2)cc1` (stereo not drawn) [Compound I-051], the IC50 was found to be 277 nM.
Take `COc1ccccc1C1c2c(C3(CO)CCCCC3)n[nH]c2C(=O)N1c1ccc(-c2ccon2)cc1` (stereo not drawn) [II-064]: the concentration for half-maximal inhibition (IC50) is 75 nM.
Take `COCc1ccccc1[C@@H]1C(C(=O)C(C)C)=C(O)C(=O)N1c1ccc(-c2csc(C)c2)cc1` [Compound I-455]: the IC50 is 14 nM.
`COCc1ccccc1C1C(C(=O)CC(C)C)=C(O)C(=O)N1c1ccc(-c2ccsc2)cc1` (stereo not drawn) [Compound I-252]: the IC50 was 10 nM.
Take `Cc1ccc(-c2ccc(N3C(=O)C(O)=C(C(=O)CC(C)C)C3c3ccccc3C(=O)N(C)C)cc2)s1` (stereo not drawn) [Compound I-406]: the IC50 was 29 nM.
On to `CC(C)Oc1ccccc1C1C(C(=O)C(C)C)=C(O)C(=O)N1c1ccc(N2CCCC2)cc1` (stereo not drawn) [Compound I-459], for which the IC50 was found to be 26 nM.
Take `COCCOc1ccccc1C1C(C(=O)C(C)C)=C(O)C(=O)N1c1ccc(-c2ccoc2)cc1` (stereo not drawn) [Compound I-201]: the IC50 is 39 nM.
Turning to `COc1ccccc1C1c2c(C(C)(C)CO)n[nH]c2C(=O)N1c1nc2ccccc2s1` (stereo not drawn) [II-139], the IC50 turned out to be 332 nM.
In the case of `COc1ccccc1C1C(C(=O)C(C)C)=C(O)C(=O)N1c1ccc(-c2ccsc2)c(N)c1` (stereo not drawn) [Compound I-237], the IC50 was found to be 705 nM.
Under `CCCc1ccc(N2C(=O)c3[nH]nc(C(C)(C)C)c3C2c2ccccc2OC)cc1` (stereo not drawn) [II-001] stands 104 nM; under `COc1ccccc1C1C(C(=O)C2(CO)CCCCC2)=C(O)C(=O)N1c1ccc(-c2ccon2)cc1` (stereo not drawn) [Compound I-031], 700 nM.
On to `CC(C)(C)c1n[nH]c2c1C(c1ccccc1OCCO)N(c1ccc(-c3cccs3)cc1)C2=O` (stereo not drawn) [II-012], for which the IC50 stood at 4 nM.
In the case of `COc1ccccc1C1C(C(=O)c2ccco2)=C(O)C(=O)N1c1ccc(-c2ccsc2)cc1` (stereo not drawn) [Compound I-211], the IC50 was found to be 157 nM.
As for `CSc1ccccc1C1c2c(C(C)(C)C)n[nH]c2C(=O)N1c1ccc(-c2ccon2)cc1` (stereo not drawn) [II-099], the figure is 46 nM.
In the case of `Cc1cc(-c2ccc(N3C(=O)C(O)=C(C(=O)CC(C)C)C3c3ccccc3OC(C)C)cc2)cs1` (stereo not drawn) [Compound I-373], the IC50 was 51 nM.
With `COCCOc1ncccc1C1C(C(=O)C2CCCC2)=C(O)C(=O)N1c1ccc(-c2noc(C)n2)cc1` (stereo not drawn) [Compound I-523], the IC50 turned out to be 351 nM.
For `COCCOc1ccccc1C1c2c(C(C)(C)C)n[nH]c2C(=O)N1c1ccc(SC)cc1` (stereo not drawn) [II-026], the IC50 came to 23 nM.
For `COCCOc1cc(F)ccc1C1C(C(=O)CC(C)C)=C(O)C(=O)N1c1ccc(-c2ccoc2)cc1` (stereo not drawn) [Compound I-368], the IC50 stood at 16 nM.
On to `COc1ccccc1C1c2c(C(C)(C)C)n[nH]c2C(=O)N1c1ccc(C(C)(C)O)cc1` (stereo not drawn) [II-151], for which the IC50 came to 650 nM.
For `COCc1ccccc1C1C(C(=O)C2CCCC2)=C(O)C(=O)N1c1ccc(-c2ccsc2)cc1` (stereo not drawn) [Compound I-516], the IC50 stood at 33 nM.
For `CC(C)CC(=O)C1=C(O)C(=O)N(c2ccc(-c3ccoc3)cc2)C1c1ccccc1OC(C)C` (stereo not drawn) [Compound I-408], the IC50 stood at 18 nM.
Regarding `COc1ncccc1C1c2c(C(C)(C)C)n[nH]c2C(=O)N1c1ccc(-c2ccsc2)cn1` (stereo not drawn) [II-262], the IC50 is 39 nM.
As for `CC(C)C(=O)C1=C(O)C(=O)N(c2ccc(-c3ccsc3)cc2)C1c1ccccc1C(=O)N(C)C` (stereo not drawn) [Compound I-245], the figure is 47 nM; as for `CC(C)CC(=O)C1=C(O)C(=O)N(c2ccc(-c3ccsc3)cc2)C1c1ccccc1N1CCOCC1` (stereo not drawn) [Compound I-442], 5 nM; as for `CC(C)(C)c1n[nH]c2c1C(c1ccccc1OCC(=O)O)N(c1ccc(-c3ccon3)cc1)C2=O` (stereo not drawn) [II-029], 90 nM.
`Cc1cc(-c2ccc(N3C(=O)C(O)=C(C(=O)C(C)C)C3c3ccccc3S(C)(=O)=O)cc2)cs1` (stereo not drawn) [Compound I-507]: the IC50 came to 101 nM.
In the case of `COCc1ccccc1C1C(C(=O)CC(C)C)=C(O)C(=O)N1c1ccc(SC(F)(F)F)cc1` (stereo not drawn) [Compound I-448], the IC50 came out at 246 nM.
Under `CCc1ccccc1C1c2c(C(C)(C)C)n[nH]c2C(=O)N1c1ccc(-c2ccon2)cc1` (stereo not drawn) [II-106] stands 226 nM; under `COCCOc1ncccc1C1c2c(C(C)(C)C)n[nH]c2C(=O)N1c1ccc(-c2ccsc2)cc1` (stereo not drawn) [II-032], 6 nM; under `Cc1nc(-c2ccc(N3C(=O)C(O)=C(C(=O)C(C)C)C3c3ccccc3OCCO)cc2)no1` (stereo not drawn) [Compound I-277], 342 nM.
As to `Cc1nc(-c2ccc(N3C(=O)C(O)=C(S(=O)(=O)c4ccccc4)C3C3CCCCC3)cc2)no1` (stereo not drawn) [Compound I-499], the IC50 was found to be 398 nM.
`COc1ncccc1C1c2c(C(C)(C)CO)n[nH]c2C(=O)N1c1ccc(-c2ccsc2)cc1` (stereo not drawn) [II-109]: the IC50 was 21 nM.
`Cc1ccc(-c2ccc(N3C(=O)C(O)=C(C(=O)CC(C)C)C3c3ccccc3OCCO)cc2)o1` (stereo not drawn) [Compound I-384]: the IC50 was 19 nM.
Turning to `Cc1ccc(-c2ccc(N3C(=O)C(O)=C(C(=O)C(C)C)C3c3ccccc3CCC(=O)N(C)C)cc2)o1` (stereo not drawn) [Compound I-537], the IC50 worked out at 83 nM.
In the case of `Cc1cc(-c2ccc(N3C(=O)C(O)=C(C(=O)CC(C)C)C3c3ccccc3C(=O)N3CCOCC3)cc2)cs1` (stereo not drawn) [Compound I-505], the IC50 came to 168 nM.
`CCC(CC)C1C(C(=O)c2ccc(C(=O)N(C)C)cc2)=C(O)C(=O)N1c1ccc(-c2ccon2)cc1` (stereo not drawn) [Compound I-003]: the IC50 is 40 nM.
`COCc1ccccc1C1C(C(=O)C(C)C)=C(O)C(=O)N1c1ccc(-c2ccoc2)cc1` (stereo not drawn) [Compound I-204]: the IC50 was 43 nM.
Turning to `Cc1nc(-c2ccc(N3C(=O)C(O)=C(C(=O)CC(C)C)C3c3ccccc3OC(C)C)cc2)no1` (stereo not drawn) [Compound I-317], the IC50 was 73 nM.
For `COCCOc1ncccc1C1C(C(=O)C(C)C)=C(O)C(=O)N1c1ccc(-c2ccc(C)s2)cc1` (stereo not drawn) [Compound I-267], the IC50 came out at 14 nM.
In the case of `CNC(=O)COc1ncccc1C1c2c(C(C)C)n[nH]c2C(=O)N1c1ccc(-c2ccsc2)cc1` (stereo not drawn) [II-053], the IC50 was 35 nM.
For the compound `CC(C)CC(=O)C1=C(O)C(=O)N(c2ccc(-c3ccon3)cc2)C1c1ccccc1OC(F)(F)F` (stereo not drawn) [Compound I-308], the IC50 was 193 nM.
Consider `COc1ncccc1C1C(C(=O)CC(C)C)=C(O)C(=O)N1c1ccc(-c2ccoc2)cc1` (stereo not drawn) [Compound I-340], for which the IC50 amounted to 336 nM.
On to `COCCOc1ccccc1C1C(C(=O)C(C)C)=C(O)C(=O)N1c1ccc(-c2cscn2)cc1` (stereo not drawn) [Compound I-417], for which the IC50 was 181 nM.
`Cc1nc(-c2ccc(N3C(=O)C(O)=C(C(=O)CC(C)C)C3c3ccccc3OC(F)(F)F)cc2)no1` (stereo not drawn) [Compound I-319]: the IC50 worked out at 222 nM.
As for `COc1ccccc1C1C(C(=O)C(C)(C)C)=C(O)C(=O)N1c1ccc(-c2ccc(C)s2)cc1` (stereo not drawn) [Compound I-210], the figure is 47 nM; as for `CC(C)CC(=O)C1=C(O)C(=O)N(c2ccc(-c3ccsc3)cc2)C1c1ccccc1OC(C)C` (stereo not drawn) [Compound I-293], 12 nM; as for `COc1ccccc1C1C(C(=O)C(C)(C)C)=C(O)C(=O)N1c1ccc(SC(F)(F)F)cc1` (stereo not drawn) [Compound I-047], 221 nM.
`Cc1cc(-c2ccc(N3C(=O)C(O)=C(C(=O)C(C)C)C3c3ccccc3OC(C)C)cc2)cs1` (stereo not drawn) [Compound I-419]: the IC50 turned out to be 32 nM.
Under `COc1ccc(C(=O)C2=C(O)C(=O)N(c3ccc(-c4ccon4)cc3)C2c2ccc(Br)cc2OC)cc1` (stereo not drawn) [Compound I-131] stands 251 nM; under `CC(C)C(=O)C1=C(O)C(=O)N(c2ccc(-c3ccsc3)cc2)C1c1ccccc1OC(F)F` (stereo not drawn) [Compound I-301], 18 nM.
As for `Cc1ccc(-c2ccc(N3C(=O)C(O)=C(C(=O)CC(C)C)C3c3cccnc3C(=O)NCCN(C)C)cc2)s1` (stereo not drawn) [Compound I-583], the figure is 10 nM; as for `CCOc1ncccc1C1C(C(=O)CC(C)C)=C(O)C(=O)N1c1ccc(-c2ccsc2)cc1` (stereo not drawn) [Compound I-440], 35 nM.
On to `CC(C)C(=O)C1=C(O)C(=O)N(c2ccc(-c3ccsc3)cc2)C1c1ccccc1C#N` (stereo not drawn) [Compound I-244], for which the IC50 was 27 nM.
Take `COCCCOc1ccccc1C1C(C(=O)C(C)C)=C(O)C(=O)N1c1ccc(-c2noc(C)n2)cc1` (stereo not drawn) [Compound I-491]: the IC50 was found to be 155 nM.
Under `COc1ccccc1C1C(C(=O)CC(C)(C)C)=C(O)C(=O)N1c1ccc(-c2ccon2)cc1` (stereo not drawn) [Compound I-072] stands 352 nM; under `CC(C)(C)c1n[nH]c2c1C(c1ccccc1O)N(c1ccc(-c3ccon3)cc1)C2=O` (stereo not drawn) [II-107], 114 nM; under `COc1ccccc1C1C(C(=O)CC(C)C)=C(O)C(=O)N1c1ccc(-c2ccoc2)cc1` (stereo not drawn) [Compound I-351], 101 nM.
As to `COc1ccccc1C1c2c(C3CC3)n[nH]c2C(=O)N1c1ccc(-c2ccsc2)cc1` (stereo not drawn) [II-083], the IC50 worked out at 24 nM.
Consider `CNC(=C(C)C)C1=C(O)C(=O)N(c2ccc(-c3ccsc3)cc2)C1c1cccnc1O` (stereo not drawn) [Compound I-253], for which the IC50 came out at 193 nM.
For `COc1ccccc1C1C(S(=O)(=O)C(C)C)=C(O)C(=O)N1c1ccc(-c2ccc(C)o2)cc1` (stereo not drawn) [Compound I-467], the IC50 amounted to 286 nM.
In the case of `CC(C)Oc1ccccc1C1C(C(=O)C(C)(C)C)=C(O)C(=O)N1c1ccc(-c2ccon2)cc1` (stereo not drawn) [Compound I-105], the IC50 turned out to be 97 nM.
Regarding `CSc1ccc(N2C(=O)c3[nH]nc(C(C)(C)C)c3C2c2ccccc2OCCO)cc1` (stereo not drawn) [II-013], the IC50 came out at 19 nM.
Under `CC(C)(C)c1n[nH]c2c1C(c1cccnc1OCCO)N(c1ccc(-c3ccoc3)cc1)C2=O` (stereo not drawn) [II-041] stands 27 nM.
Under `COCOc1ccccc1C1C(C(=O)CC(C)C)=C(O)C(=O)N1c1ccc(-c2csc(C)c2)cc1` (stereo not drawn) [Compound I-372] stands 35 nM.
